Laboratory results: ChEMBL document CHEMBL3871289, “Design, synthesis and antithrombotic evaluation of novel non-peptide thrombin inhibitors” (Bioorg Med Chem, 2017)
Activity calls are given as the source filed them. The rule behind the calls is not given here.

molecular target: Prothrombin (Homo sapiens, UniProt P00734); test: Inhibition of human thrombin assessed as reduction in release of free nitroaniline using tosyl-glycyl-prolyl-arginine-4-nitranilide acetate as substrate preincubated for 10 mins followed by substrate addition by spectrophotometer

Compound | IC50
N=C(N)c1ccc(CC2NCCn3c2nc2cc(C4(C(=O)N5CCCC5)CCCC4)ccc23)cc1 (stereo not drawn) | 82.8 nM
N=C(N)c1ccc(CC2NCCn3c2nc2cc(C4(C(=O)N5CCCC5)CCC4)ccc23)cc1 (stereo not drawn) | 446 nM
N=C(N)c1ccc(CC2NCCn3c2nc2cc(C4(C(=O)N5CCCCC5)CCC4)ccc23)cc1 (stereo not drawn) | 456 nM
N=C(N)c1ccc(CC2NCCn3c2nc2cc(C4(C(=O)N5CCCC5)CC4)ccc23)cc1 (stereo not drawn) | 511 nM
CCOC(=O)C1(c2ccc3c(c2)nc2n3CCNC2Cc2ccc(C(=N)N)cc2)CCCC1 (stereo not drawn) | 1920 nM
N=C(N)c1ccc(CC2NCCn3c2nc2cc(C4(C(=O)N5CCCCC5)CCCC4)ccc23)cc1 (stereo not drawn) | 1030 nM
CCOC(=O)C(C)(C)c1ccc2c(c1)nc1n2CCNC1Cc1ccc(C(=N)N)cc1 (stereo not drawn) | 1440 nM
CC(C)(C(=O)N1CCCC1)c1ccc2c(c1)nc1n2CCNC1Cc1ccc(C(=N)N)cc1 (stereo not drawn) | 147 nM
N=C(N)c1ccc(CC2NCCn3c2nc2cc(C4(C(=O)N5CCCCC5)CC4)ccc23)cc1 (stereo not drawn) | 437 nM
CC(C)(C(=O)N1CCCCC1)c1ccc2c(c1)nc1n2CCNC1Cc1ccc(C(=N)N)cc1 (stereo not drawn) | 1000 nM

test system: Rattus norvegicus; test: Anti-thrombotic activity in intragastrically dosed Sprague-Dawley rat venous thrombosis model assessed as reduction in thrombus weight administered once daily for 3 days measured 2 hrs post last dose; assay type: functional, organism-based

Compound | Activity
Cc1nc(C)c(OC(=O)/N=C(\N)c2ccc(CC3NCCn4c3nc3cc(C5(C(=O)N6CCCC6)CCCC5)ccc34)cc2)nc1C (stereo not drawn) | Dose-dependent effect
CC(C)(C)OC(=O)/N=C(\N)c1ccc(CC2NCCn3c2nc2cc(C4(C(=O)N5CCCC5)CCCC4)ccc23)cc1 (stereo not drawn) | Dose-dependent effect

test system: Rattus norvegicus; test: Anti-thrombotic activity in Sprague-Dawley rat venous thrombosis model assessed as reduction in thrombus weight at 5 mg/kg, ig administered once daily for 3 days measured 2 hrs post last dose; assay type: functional, organism-based

Compound | Activity
CCCCCCOC(=O)NC(=N)c1ccc(NCc2nc3cc(C(=O)N(CCC(=O)OCC)c4ccccn4)ccc3n2C)cc1 | Active
